Tested on: M. tuberculosis gyrase, GyrB Arg141 mutants
Type: biochemical, Mycobacterium tuberculosis

Row | SMILES | inhibition of supercoiling of Arg141 mutant gyrase
1 | CNc1cc(F)cc2c1[nH]c1nc(Oc3cnc(C)nc3)nc(N3C[C@@H]4[C@@H](N)[C@@H]4C3)c12 [Redx03863] | susceptible to inhibition
2 | CO[C@@H]1[C@@H](OC(N)=O)[C@@H](O)[C@H](Oc2ccc3c(O)c(NC(=O)c4ccc(O)c(CC=C(C)C)c4)c(=O)oc3c2C)OC1(C)C [novobiocin, reference compound] | at least partially inhibited

Reference: paper PMC7556816, “Structural and mechanistic analysis of ATPase inhibitors targeting mycobacterial DNA gyrase” (Journal of Antimicrobial Chemotherapy, 2020)
